Patent publication US20240173419A1, “CDK2 DEGRADERS AND USES THEREOF” (Kymera Therapeutics, Inc., priority 2022, published 2024)

Target: T1, CDK2 (Homo sapiens, UniProt P24941)
T1 construct: endogenous in cells; host or cells: MKN1 cells
Test: CDK2 degradation in MKN1 cells (AlphaLISA)
Format: cell-based
Set-up: key to CDK2 degradation 14 h: Mean external-Abs DC50 (nM): A (<100 nM); B (≥100-500 nM); C (>500-1000 nM); D (>1000 nM); E (not achieved)
Details: 14 h incubation; for DC50: read-out: CDK2 degradation 14 h: Mean external-Abs DC50
Outline: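 DC50 from four-parameter logistic fit of AlphaLISA CDK2 signal, corrected for no-cell wells. Lysates came from MKN1 cells, 2e4 per well, exposed 14 h at 37° C to compound at 0.001 nM-10 μM (1:5 series, 11 doses) in 0.1% DMSO.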

| CDK2 degradation 14 h: Average Dmax % | DC50 [nM] | CDK2 degradation 14 h: Mean external-Abs DC50 (nM) | Structure (SMILES) |
| --- | --- | --- | --- |
| A (A (>75% o)) | < 100 | – | Cc1cc(S(=O)(=O)N2CCC(CN(C)C3CCN(c4cccc5c(N6CCC(=O)NC6=O)cncc45)CC3)CC2)ccc1Nc1ncc2cc(Cl)c(=O)n(C3CCCC3)c2n1 [I-416] |
| B (B (>50% -75%)) | < 100 | – | Cc1cc(S(=O)(=O)N2CCC(CN3CCN(Cc4cccc5c4n(C)c(=O)n5C4CCC(=O)NC4=O)CC3)CC2)ccc1Nc1ncc2ccc(=O)n(C3CCCC3)c2n1 (stereo not shown) [I-452] |
| A (A (>75% o)) | 100 to 500 | – | Cc1cc(S(=O)(=O)C2CC3(CCN(CC4CCN(c5cccc(OC6CCC(=O)NC6=O)c5)CC4)CC3)C2)ccc1Nc1ncc2cc(Cl)c(=O)n(C3CCCC3)c2n1 (stereo not shown) [I-74] |
| A (A (>75% o)) | < 100 | – | Cc1cc(S(=O)(=O)NC2(C)CCN(CC3(F)CCN(c4ccc(C5CCC(=O)NC5=O)cc4)CC3)CC2)ccc1Nc1ncc(C(F)(F)F)c(N2CCC[C@](C)(O)C2)n1 (stereo partly shown) [I-808] |
| A (A (>75% o)) | < 100 | – | Cc1cc(S(=O)(=O)NC2CC3(CCN(CC4CCN(c5cccc6c5n(C)c(=O)n6C5CCC(=O)NC5=O)CC4)CC3)C2)ccc1Nc1ncc2cc(Cl)c(=O)n(C3CCCC3)c2n1 (stereo not shown) [I-347] |
| A (A (>75% o)) | < 100 | – | Cc1cc(S(=O)(=O)NC2CCC(CN3CCN(c4ncc(C5CCC(=O)NC5=O)cc4F)CC3)CC2)ccc1Nc1ncc(C(F)(F)F)c(N2CCCC(C)(O)C2)n1 (stereo not shown) [I-1142] |
| A (A (>75% o)) | < 100 | – | Cc1cc(S(=O)(=O)NCCN2CCN(CC3CCN(c4ccc5c(c4)n(C)c(=O)n5C4CCC(=O)NC4=O)CC3)CC2)ccc1Nc1ncc2cc(Cl)c(=O)n(C(C)C)c2n1 (stereo not shown) [I-397] |
| C (C (>25% -50%)) | > 1000 | – | Cc1cc(S(=O)(=O)N2CC3(CC(OCCN4CCC(c5ccc6c(c5)n(C)c(=O)n6C5CCC(=O)NC5=O)CC4)C3)C2)ccc1Nc1ncc2cc(Cl)c(=O)n(C3CCCC3)c2n1 (stereo not shown) [I-418] |
| C (C (>25% -50%)) | > 1000 | – | Cc1cc(S(=O)(=O)NCCCCC2CCN(c3ccc(N4CCC(=O)NC4=O)cc3)CC2)ccc1Nc1ncc2cc(Cl)c(=O)n(C3CCCC3)c2n1 [I-411] |
| A (A (>75% o)) | < 100 | – | Cc1cc(S(=O)(=O)N[C@H]2CC[C@H](CN3CCN(c4ccc(C5CCC(=O)NC5=O)cc4F)C[C@@H]3C)CC2)ccc1Nc1ncc(C(F)(F)F)c(N2CCC[C@](C)(O)C2)n1 (stereo partly shown) [I-810] |
| A (A (>75% o)) | < 100 | – | Cc1cc(S(=O)(=O)NC2CCC(CN3CCN(c4ccc5c(c4F)n(C)c(=O)n5C4CCC(=O)NC4=O)CC3)CC2)ccc1Nc1ncc(C(F)(F)F)c(N2CCCC(C)(O)C2)n1 (stereo not shown) [I-813] |
| A (A (>75% o)) | < 100 | – | Cc1cc(S(=O)(=O)NCCCN2CCN(CC3CCN(c4ccc5c(c4)n(C)c(=O)n5C4CCC(=O)NC4=O)CC3)CC2)ccc1Nc1ncc2cc(Cl)c(=O)n(C3CCCC3)c2n1 (stereo not shown) [I-431] |
| A (A (>75% o)) | < 100 | – | Cc1cc(S(=O)(=O)NCCCN2CCC(OC3CCN(c4ccc5c(c4)n(C)c(=O)n5C4CCC(=O)NC4=O)CC3)CC2)ccc1Nc1ncc2cc(Cl)c(=O)n(C3CCCC3)c2n1 (stereo not shown) [I-433] |
| A (A (>75% o)) | < 100 | – | Cc1cc(S(=O)(=O)NC2CC(N3CCN(CC4CCN(c5ccc(Cl)c(C6CCC(=O)NC6=O)c5)CC4)CC3)C2)ccc1Nc1ncc(C(F)(F)F)c(N2CCCC(C)(O)C2)n1 (stereo not shown) [I-715] |
| A (A (>75% o)) | < 100 | – | Cc1cc(S(=O)(=O)NC2CCC(CN3CCN(c4cc(F)c(C5CCC(=O)NC5=O)cc4C)CC3)CC2)ccc1Nc1ncc(C(F)(F)F)c(N2CCCC(C)(O)C2)n1 (stereo not shown) [I-806] |
| A (A (>75% o)) | < 100 | – | Cc1cc(S(=O)(=O)NCCOC2CC3(C2)CN(CCCc2ccc4c(c2)n(C)c(=O)n4C2CCC(=O)NC2=O)C3)ccc1Nc1ncc2ccc(=O)n(C3CCCC3)c2n1 (stereo not shown) [I-472] |
| A (A (>75% o)) | < 100 | – | CC1(O)CCCN(c2nc(Nc3ccc(S(=O)(=O)NC4CCN(CC5CCN(c6ccc(C7CCC(=O)NC7=O)c(F)c6)CC5)CC45CC5)cc3F)ncc2C(F)(F)F)C1 (stereo not shown) [I-1056] |
| C (C (>25% -50%)) | > 1000 | – | CC1(O)CCCN(c2nc(Nc3ccc(S(=O)(=O)NC4CCC(CN5CCN(c6ccc(C7CCC(=O)NC7=O)c(Cl)c6)CC5)CC4)cc3C(F)(F)F)ncc2C(F)(F)F)C1 (stereo not shown) [I-1103] |

| CDK2 degradation 14 h: Average Dmax % | DC50 [nM] | CDK2 degradation 14 h: Mean external-Abs DC50 (nM) | Structure (SMILES) |
| --- | --- | --- | --- |
| D (D (<25%)) | > 1000 | – | Cn1c(=O)n(C2CCC(=O)NC2=O)c2cccc(CCCOCCOCCOCCOCC(=O)N3CCC(Nc4ncc5cc(C(F)F)c(=O)n([C@@H]6CCC[C@]6(C)O)c5n4)CC3)c21 (stereo partly shown) [I-502] |
| B (B (>50% -75%)) | 100 to 500 | – | Cc1cc(S(=O)(=O)N2CCC3(CCN(Cc4cccc5c4n(C)c(=O)n5C4CCC(=O)NC4=O)CC3)CC2)ccc1Nc1ncc2ccc(=O)n(C3CCCC3)c2n1 (stereo not shown) [I-458] |
| A (A (>75% o)) | < 100 | – | Cc1cc(S(=O)(=O)NC2CC(N3CCN(CC4CCN(c5cccc6c5n(C)c(=O)n6C5CCC(=O)NC5=O)CC4)CC3)C2)ccc1Nc1ncc(C(F)(F)F)c(N2CCCCC2)n1 (stereo not shown) [I-795] |
| A (A (>75% o)) | < 100 | – | CC1CN(CC2CCN(c3ccc(C4CCC(=O)NC4=O)c(F)c3)CC2)CCC1NS(=O)(=O)c1ccc(Nc2ncc(C(F)(F)F)c(N3CCCC(C)(O)C3)n2)c(F)c1 (stereo not shown) [I-1046] |
| A (A (>75% o)) | < 100 | – | Cc1cc(S(=O)(=O)NC2CCC(CN3CCN(c4ccc(C5CCC(=O)NC5=O)cc4C)CC3)CC2)ccc1Nc1ncc(C(F)(F)F)c(N2CCCC(C)(O)C2)n1 (stereo not shown) [I-811] |
| A (A (>75% o)) | < 100 | – | Cn1nc(N2CCC(=O)NC2=O)c2ccc(C3CCN(Cc4cccc(S(=O)(=O)N5CCC(Nc6ncc7ccc(=O)n(C8CCCC8)c7n6)CC5)c4)CC3)cc21 [I-968] |
| D (D (<25%)) | > 1000 | – | Cc1cc(S(=O)(=O)C2CC3(CCN(CC4CCN(c5ccc6c(c5F)n(C)c(=O)n6C5CCC(=O)NC5=O)CC4)CC3)C2)ccc1Nc1ncc2cc(Cl)c(=O)n(C3CCOCC3)c2n1 (stereo not shown) [I-130] |
| A (A (>75% o)) | 100 to 500 | – | Cc1cc(S(=O)(=O)C2CC3(CCN(CC4(F)CCN(c5cccc6c5n(C)c(=O)n6C5CCC(=O)NC5=O)CC4)CC3)C2)ccc1Nc1ncc2cc(Cl)c(=O)n(C3CCCC3)c2n1 (stereo not shown) [I-45] |
| A (A (>75% o)) | < 100 | – | Cc1cc(S(=O)(=O)C2CC3(CCN(CC4CCN(c5ccc(C6CCC(=O)NC6=O)cc5)CC4)CC3)C2)ccc1Nc1ncc2cc(Cl)c(=O)n(C3CCCC3)c2n1 (stereo not shown) [I-81] |
| A (A (>75% o)) | < 100 | – | Cc1cc(S(=O)(=O)NC2CC(N3CCN(CC4CCN(c5ccc(Cl)c(N6CCC(=O)NC6=O)c5)CC4)CC3)C2)ccc1Nc1ncc(C(F)(F)F)c(N2CCCC(C)(O)C2)n1 (stereo not shown) [I-722] |
| C (C (>25% -50%)) | > 1000 | – | Cc1cc(S(=O)(=O)N2CCC(OCCCc3cccc4c3n(C)c(=O)n4C3CCC(=O)NC3=O)CC2)ccc1Nc1ncc2ccc(=O)n(C3CCCC3)c2n1 (stereo not shown) [I-454] |
| A (A (>75% o)) | < 100 | – | Cc1cc(S(=O)(=O)NC2CCC(CN3CCN(c4ccc5c(c4)n(C4CC4)c(=O)n5C4CCC(=O)NC4=O)CC3)CC2)ccc1Nc1ncc2c(n1)N(C1CCCC(O)C1)C(=O)C21CC1 (stereo not shown) [I-947] |
| A (A (>75% o)) | 100 to 500 | – | Cc1cc(S(=O)(=O)C2CCN(CCN3CCN(c4cccc5c4n(C)c(=O)n5C4CCC(=O)NC4=O)CC3=O)CC2)ccc1Nc1ncc2cc(Cl)c(=O)n(C3CCCC3)c2n1 (stereo not shown) [I-43] |
| C (C (>25% -50%)) | – | E | Cc1cc(S(=O)(=O)N2CCC(CN(C)C3CN(c4cccc5c4n(C)c(=O)n5C4CCC(=O)NC4=O)C3)CC2)ccc1Nc1ncc2cc(Cl)c(=O)n(C3CCCC3)c2n1 (stereo not shown) [I-422] |
| A (A (>75% o)) | < 100 | – | Cc1cc(S(=O)(=O)NC2CCC(CN3CCN(c4cccc(NC5CCC(=O)NC5=O)c4F)CC3)CC2)ccc1Nc1ncc(C(F)(F)F)c(N2CCCC(C)(O)C2)n1 (stereo not shown) [I-1143] |
| B (B (>50% -75%)) | < 100 | – | Cc1cc(S(=O)(=O)CCCO[C@H]2CC[C@H](CN3CCC(c4ccc5c(c4)n(C4CCC(=O)NC4=O)c(=O)n5C)CC3)CC2)ccc1Nc1nccc(-c2cnc(C)n2C(C)C)n1 (stereo partly shown) [I-4] |
| B (B (>50% -75%)) | > 1000 | – | Cc1cc(S(=O)(=O)NC2CCC(CN3CCN(c4ccc(C5CCC(=O)NC5=O)c(C(F)(F)F)c4)CC3)CC2)ccc1Nc1ncc(C(F)(F)F)c(N2CCCC(C)(O)C2)n1 (stereo not shown) [I-1138] |
